Experiments:
Format in all cases: in vivo, human
[1] = Cerebrospinal folate level in a patient with cerebrospinal folate deficiency (case report, Example 2); details: patient Example 2; folinic acid 5 mg twice per day; within approximately four months; rose from 32 L (preferred range 40-128)
Method: Example 1 was tested for cerebrospinal folate deficiency approximately four months after Example 2's testing. […] Studies have shown that the earlier the anemias associated with cerebrospinal folate deficiency are addressed, the better the adversely impacted individual can overcome more long-term effects of the associated folate deficiency.
After Example 2's diagnosis, Example 2 was placed on 5-methyltetrahydrofolate in the form of folinic acid (5 mg twice per day).

[2] = Clinical improvement of a patient with cerebrospinal folate deficiency (case report, Example 2); details: patient Example 2; after 5-methyltetrahydrofolate treatment (folinic acid 5 mg twice per day)
Method: After Example 2's diagnosis, Example 2 was placed on 5-methyltetrahydrofolate in the form of folinic acid (5 mg twice per day). Within approximately four months, Example 2's cerebrospinal folate levels rose from 32 L (preferred range 40-128) to approximately 88 (above the midpoint of the range). […] Thus, reduced folates are critical.

[3] = Hematological response (reticulocytes) in a hypothyroid neonate after vitamin B12 supplementation (case report, Example 1); details: patient Example 1 (neonate); additional nutritional supplement containing 2 mcg of vitamin B12
Excerpt: In another example: a patient (later referred to as Example 1, and also a twin of Example 2) suffered from clinical signs of cerebrospinal folate deficiency at birth. Example 1 received infant milk formula that contained vitamin B12. […] It is noted that the multivitamin nutritional supplement was Poly-Vi-Sol. Example 2 received a version of Poly-Vi-Sol that was fortified with iron, but that contained no vitamin B12. It is further noted that neither the version of Poly-Vi-Sol (without the iron fortification) nor the Poly-Vi-Sol (with iron fortification) contained any folate. Thus, the disclosed subject matter addresses the need for Poly-Vi-Sol, and other vitamin supplements that are given to neonates, infants and toddlers, to contain the methods and compositions described herein.
Both Example 1 and Example 2 were treated for iron deficiencies with iron supplements. Example 1 and Example 2 received different nutritional supplementation with respect to vitamin B 12. Although Example 2 did receive the same infant milk formula that Example 1 received, which infant milk formula contained vitamin B 12, Example 2 received less of the infant milk formula than Example 1, and Example 2 received in lieu of the infant milk formula more of the breast milk from the hypothyroid […]. […]

## Nc1nc2c(c(=O)[nH]1)N(C=O)C(CNc1ccc(C(=O)N[C@@H](CCC(=O)O)C(=O)O)cc1)CN2 (stereo partly drawn) [folinic acid, 6(R,S)-5-formyltetrahydrofolate]
[1]
  cerebrospinal folate levels: approximately 88
[2]
  physical, behavioral and social skills: showed improvement in physical, behavioral and social skills

## vitamin B 12
[3]
  hematological response: reticulocytes: increase in reticulocytes, moving from below normal to normal
